Laboratory results as given in US11180462B2, “Microbiocidal oxadiazole derivatives” (SYNGENTA PARTICIPATIONS AG, priority 2015, dated 2021).

Assays:
[1] = system: Puccinia recondita f. Sp. Tritici; assay: Fungicidal activity against Puccinia recondita f. sp. tritici / wheat / leaf disc curative (brown rust); assay type: in vivo; conditions: foliar, 24 h, 200 ppm in the applied formulation, wheat leaf segments, curative (applied 1 day after inoculation), compared to untreated control leaf disks, read-out: disease control
Outline: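 Wheat cv. Kanzler leaf segments on agar, inoculated with rust spore suspension, kept dark at 19° C and 75% RH; formulated compound sprayed 1 day post-inoculation. Incubated 19° C, 75% RH, 12 h light/12 h dark; percent disease control vs untreated scored 6 to 8 days after application.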

Phakopsora Pachyrhizi = assay: Fungicidal activity against Phakopsora pachyrhizi / soybean / leaf disc preventative (Asian soybean rust); assay type: in vivo; conditions: foliar, 200 ppm in the applied formulation, soybean leaf disks, compared to untreated control leaf disks, read-out: disease control
Outline: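 Preventative soybean leaf-disc test: discs on water agar sprayed with diluted formulated compound, inoculated one day later with spores on the lower surface. Held 24–36 h dark at 20°C, 75% rh, then 12 h light/day; percent disease control versus untreated discs scored 12–14 days after application.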

[2] = system: Glomerella lagenarium (Colletotrichum lagenarium); assay: Fungicidal activity against Glomerella lagenarium (Colletotrichum lagenarium) liquid culture / cucumber / preventative (anthracnose); assay type: cell-based; conditions: Colletotrichum orbiculare; 20 ppm in the applied formulation; liquid culture (PDB), growth inhibition measured photometrically after 3 to 4 days; compared to untreated control; read-out: disease control
Outline: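 Photometric read-out of fungal growth after 2–7 days, expressed as percent antifungal activity versus untreated check. Cryo-stored conidia in PDB; compound at 20 ppm; dark, 24 °C, 96% RH.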

[3] = system: Puccinia recondita f. Sp. Tritici; assay: Fungicidal activity against Puccinia recondita f. sp. tritici / wheat / leaf disc preventative (brown rust); assay type: in vivo; conditions: foliar, 200 ppm in the applied formulation, wheat leaf segments, preventative, compared to untreated control leaf disks, read-out: disease control
Outline: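 Compound application precedes infection: segments of wheat cv. Kanzler, sprayed at 200 ppm, are inoculated with a spore suspension after 1 day. Incubation is at 19° C. with 75% relative humidity and 12 h light/12 h darkness, and control versus untreated leaves is rated 7 to 9 days post-application.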

CCON(Cc1ccc(-c2noc(C(F)(F)F)n2)cc1)C(=O)C1CC1C (stereo not shown) [Compound 1.620]
≥ 80%: pest or weed control at 200 ppm [1] | pest or weed control at 200 ppm (Phakopsora Pachyrhizi) | inhibition of growth at 20 ppm [2] | pest or weed control at 200 ppm [3]

CCC(C)N(Cc1ccc(-c2noc(C(F)(F)F)n2)cc1)C(=O)C1CC1F (stereo not shown) [Compound 1.401, 2-fluoro-N-sec-butyl-N-[[4-[5-(trifluoromethyl)-1,2,4-oxadiazol-3-yl]phenyl]methyl]-cyclopropane-carboxamide]
≥ 80%: pest or weed control at 200 ppm [1] | pest or weed control at 200 ppm (Phakopsora Pachyrhizi) | inhibition of growth at 20 ppm [2] | pest or weed control at 200 ppm [3]

CON(Cc1ccc(-c2noc(C(F)(F)F)n2)cc1)C(=O)NCC(C)C [Compound 3.13, 3-isobutyl-1-methoxy-1-[[4-[5-(trifluoromethyl)-1,2,4-oxadiazol-3-yl]phenyl]methyl]urea]
≥ 80%: pest or weed control at 200 ppm [1] | pest or weed control at 200 ppm (Phakopsora Pachyrhizi) | inhibition of growth at 20 ppm [2] | pest or weed control at 200 ppm [3]

CON(Cc1ccc(-c2noc(C(F)(F)F)n2)cn1)C(=O)C1CCCO1 (stereo not shown) [Compound 1.569, N-methoxy-N-[[5-[5-(trifiuoromethyl)-1,2,4-oxadiazol-3-yl]-2-pyridyl]methyl]-tetrahydrofuran-2-carboxamide]
≥ 80%: pest or weed control at 200 ppm [1] | pest or weed control at 200 ppm (Phakopsora Pachyrhizi) | inhibition of growth at 20 ppm [2] | pest or weed control at 200 ppm [3]

COC(=O)ON(Cc1ccc(-c2noc(C(F)(F)F)n2)cc1)C(=O)OC [Compound 2.25, [methoxycarbonyl-[[4-[5-(trifluoromethyl)-1,2,4-oxadiazol-3-yl]phenyl]methyl]-amino]methyl carbonate]
≥ 80%: pest or weed control at 200 ppm [1] | pest or weed control at 200 ppm (Phakopsora Pachyrhizi) | inhibition of growth at 20 ppm [2] | pest or weed control at 200 ppm [3]

CCCON(Cc1ccc(-c2noc(C(F)(F)F)n2)cc1)C(=O)C1(C)COC1 [Compound 1.309, 3-methyl-N-propoxy-N-[[4-[5-(trifluoromethyl)-1,2,4-oxadiazol-3-yl]phenyl]methyl]-oxetane-3-carboxamide]
≥ 80%: pest or weed control at 200 ppm [1] | pest or weed control at 200 ppm (Phakopsora Pachyrhizi) | inhibition of growth at 20 ppm [2] | pest or weed control at 200 ppm [3]

CCCN(Cc1ccc(-c2noc(C(F)(F)F)n2)cc1)C(=O)C1CCCO1 (stereo not shown) [Compound 1.663, N-propyl-N-[[4-[5-(trifluoromethyl)-1,2,4-oxadiazol-3-yl]pheny1]methyl]-tetrahydrofuran-2-carboxamide]
≥ 80%: pest or weed control at 200 ppm [1] | pest or weed control at 200 ppm (Phakopsora Pachyrhizi) | inhibition of growth at 20 ppm [2] | pest or weed control at 200 ppm [3]

CON(Cc1ccc(-c2noc(C(F)(F)F)n2)c(F)c1F)C(=O)C1CCCO1 (stereo not shown) [Compound 1.577, N-[[2,3-difluoro-4-[5-(trifluoromethyl)-1,2,4-oxadiazol-3-yl]phenyl]methyl]-N-methoxy-tetrahydrofuran-2-carboxamide]
≥ 80%: pest or weed control at 200 ppm [1] | pest or weed control at 200 ppm (Phakopsora Pachyrhizi) | inhibition of growth at 20 ppm [2] | pest or weed control at 200 ppm [3]

CCC(=O)N(CCOC)Cc1ccc(-c2noc(C(F)(F)F)n2)cc1 [Compound 1.345, N-(2-methoxyethyl)-N-[[4-[5-(trifluoromethyl)-1,2,4-oxadiazol-3-yl]phenyl]methyl]-propanamide]
≥ 80%: pest or weed control at 200 ppm [1] | pest or weed control at 200 ppm (Phakopsora Pachyrhizi) | inhibition of growth at 20 ppm [2] | pest or weed control at 200 ppm [3]

CC1(C(=O)N(O)Cc2ccc(-c3noc(C(F)(F)F)n3)cc2)CC1 [Compound 1.764, N-hydroxy-1-methyl-N-[[4-[5-(trifluoromethyl)-1,2,4-oxadiazol-3-yl]phenyl]methyl]-cyclopropane-carboxamide]
≥ 80%: pest or weed control at 200 ppm [1] | pest or weed control at 200 ppm (Phakopsora Pachyrhizi) | inhibition of growth at 20 ppm [2] | pest or weed control at 200 ppm [3]

CCC(C)N(Cc1ccc(-c2noc(C(F)(F)F)n2)cc1)C(=O)C(C)C (stereo not shown) [Compound 1.369, 2-methyl-N-sec-butyl-N-[[4-[5-(trifluoromethyl)-1,2,4-oxadiazol-3-yl]phenyl]methyl]-propanamide]
≥ 80%: pest or weed control at 200 ppm [1] | pest or weed control at 200 ppm (Phakopsora Pachyrhizi) | inhibition of growth at 20 ppm [2] | pest or weed control at 200 ppm [3]

CON(Cc1ccc(-c2noc(C(F)(F)F)n2)cc1)C(=O)C1CCC1 [Compound 1.38, N-methoxy-N-[[4-[5-(trifluoromethyl)-1,2,4-oxadiazol-3-yl]phenyl]methyl]-cyclobutane-carboxamide]
≥ 80%: pest or weed control at 200 ppm [1] | pest or weed control at 200 ppm (Phakopsora Pachyrhizi) | inhibition of growth at 20 ppm [2] | pest or weed control at 200 ppm [3]

N#CCC(=O)N(O)Cc1ccc(-c2noc(C(F)(F)F)n2)cc1 [Compound 1.771, 2-cyano-N-hydroxy-N-[[4-[5-(trifluoromethyl)-1,2,4-oxadiazol-3-yl]phenyl]methyl]-acetamide]
≥ 80%: pest or weed control at 200 ppm [1] | pest or weed control at 200 ppm (Phakopsora Pachyrhizi) | inhibition of growth at 20 ppm [2] | pest or weed control at 200 ppm [3]

COC(C)C(=O)N(Cc1ccc(-c2noc(C(F)(F)F)n2)cc1)CC1CC1 (stereo not shown) [Compound 1.245, N-(cyclopropylmethyl)-2-methoxy-N-[[4-[5-(trifluoromethyl)-1,2,4-oxadiazol-3-yl]phenyl]methyl]-propanamide]
≥ 80%: pest or weed control at 200 ppm [1] | pest or weed control at 200 ppm (Phakopsora Pachyrhizi) | inhibition of growth at 20 ppm [2] | pest or weed control at 200 ppm [3]

O=C(ON(Cc1ccc(-c2noc(C(F)(F)F)n2)cc1)C(=O)C1CC1)C1CC1 [Compound 1.608, [cyclopropanecarbonyl-[[4-[5-(trifluoromethyl)-1,2,4-oxadiazol-3-yl]phenyl]methyl]-amino]-cyclopropane-carboxylate]
≥ 80%: pest or weed control at 200 ppm [1] | pest or weed control at 200 ppm (Phakopsora Pachyrhizi) | inhibition of growth at 20 ppm [2] | pest or weed control at 200 ppm [3]

COC(C)C(=O)N(Cc1ccc(-c2noc(C(F)(F)F)n2)cc1)Cc1ccco1 (stereo not shown) [Compound 1.472, N-(2-furylmethyl)-2-methoxy-N-[[4-[5-(trifluoromethyl)-1,2,4-oxadiazol-3-yl]phenyl]methyl]-propanamide]
≥ 80%: pest or weed control at 200 ppm [1] | pest or weed control at 200 ppm (Phakopsora Pachyrhizi) | inhibition of growth at 20 ppm [2] | pest or weed control at 200 ppm [3]
